The record followed here is ChEMBL document CHEMBL5316365, “Anti-Neuroinflammatory Meroterpenoids from a Chinese Collection of the Brown Alga Sargassum siliquastrum” (J Nat Prod, 2023).

Active and inactive are the calls of the source. No cut-off for these calls is given here. Bounds are passed on as bounds.

Data set [1] can be described thus: Cytotoxicity against mouse BV-2 cells incubated for 24 hrs by MTT assay. The class given is toxicity, cell-based. A general note: Formazan colour is commonly taken as a measure of viable cells.
For data set [2], the system named is BV-2. Description: Anti-neuroinflammatory activity in LPS-induced mouse BV-2 cells assessed as inhibition of NO production pretreated for 4 hrs followed by LPS stimulation for 24 hrs by griess reagent based assay. The format is functional, cell-based. A general note: Griess reagent forms a coloured azo dye with nitrite.
In data set [3] the test system is BV-2. Description: Antineuroinflammatory activity in LPS-induced mouse BV-2 cells assessed as decrease in IL-1beta mRNA level preincubated for 4 hrs followed by LPS stimulation and measured after 6 hrs by RT-PCR method. The format is functional, cell-based. As to conditions: dose 2.5-10 µM, time 10.0 hrs.
Data set [4] relates to BV-2. As to the kind of experiment: Antineuroinflammatory activity in LPS-induced mouse BV-2 cells assessed as upregulation of IkappaB protein level in nucleus at 5 to 10 uM pretreated for 4 hrs followed by LPS stimulation and measured after 24 hrs by Western blot analysis. As to conditions: dose 5-10 µM, time 28.0 hrs. The class given is functional, cell-based.
Data set [5] relates to BV-2. As to the kind of experiment: Antineuroinflammatory activity in LPS-induced mouse BV-2 cells assessed as downregulation of NF-kappaB p65 protein expression in nucleus at 5 to 10 uM pretreated for 4 hrs followed by LPS stimulation and measured after 24 hrs by Western blot analysis. The format is functional, cell-based. As to conditions: dose 5-10 µM, time 28.0 hrs.
Data set [6] relates to BV-2. As to the kind of experiment: Antineuroinflammatory activity in LPS-induced mouse BV-2 cells assessed as decrease in TNFalpha mRNA level preincubated for 4 hrs followed by LPS stimulation and measured after 6 hrs by RT-PCR method. The format is functional, cell-based. As to conditions: dose 2.5-10 µM, time 10.0 hrs.
For data set [7], the system named is BV-2. Description: Antineuroinflammatory activity in LPS-induced mouse BV-2 cells assessed as decrease in IL-6 mRNA level preincubated for 4 hrs followed by LPS stimulation and measured after 6 hrs by RT-PCR method. The format is functional, cell-based. As to conditions: dose 2.5-10 µM, time 10.0 hrs.
Data set [8] has as its system BV-2. Description: Effect on NF-kbeta p65 total protein level in mouse BV-2 cells at 5 to 10 uM pretreated for 4 hrs followed by LPS stimulation and measured after 24 hrs by Western blot analysis. The format is functional, cell-based. As to conditions: dose 5-10 µM, time 28.0 hrs.
Data set [9] deals with Transcription factor p65 (Mus musculus) (UniProt Q04207). As to the kind of experiment: Inhibition of NF-kappaB p65 translocation from cytosol to nucleus in LPS-induced mouse BV-2 cells at 5 to 10 uM pretreated for 4 hrs followed by LPS stimulation and measured after 24 hrs by Western blot analysis. The class given is cell-based. As to conditions: dose 5-10 µM, time 28.0 hrs. In general terms: Immunoblotting shows a protein as a band on a membrane.
Transcription factor p65 (Mus musculus), sequence (Q04207 whole entry): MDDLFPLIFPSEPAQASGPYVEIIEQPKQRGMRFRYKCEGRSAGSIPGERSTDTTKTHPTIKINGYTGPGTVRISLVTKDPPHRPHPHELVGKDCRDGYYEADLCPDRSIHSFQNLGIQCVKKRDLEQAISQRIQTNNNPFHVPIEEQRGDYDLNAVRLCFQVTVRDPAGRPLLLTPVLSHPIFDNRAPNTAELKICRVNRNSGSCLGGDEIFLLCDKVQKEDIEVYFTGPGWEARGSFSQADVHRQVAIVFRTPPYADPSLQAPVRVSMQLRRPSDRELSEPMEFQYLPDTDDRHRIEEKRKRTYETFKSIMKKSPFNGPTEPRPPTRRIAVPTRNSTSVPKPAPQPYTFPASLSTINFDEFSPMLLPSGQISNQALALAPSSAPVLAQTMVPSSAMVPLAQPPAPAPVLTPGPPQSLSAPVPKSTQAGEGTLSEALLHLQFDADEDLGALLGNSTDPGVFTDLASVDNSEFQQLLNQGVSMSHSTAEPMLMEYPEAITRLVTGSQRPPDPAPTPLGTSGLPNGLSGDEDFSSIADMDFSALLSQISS

The subject of data set [10] is BV-2. As to the kind of experiment: Antineuroinflammatory activity in LPS-induced mouse BV-2 cells assessed as downregulation of IKK protein level in nucleus at 5 to 10 uM pretreated for 4 hrs followed by LPS stimulation and measured after 24 hrs by Western blot analysis. As to conditions: dose 5-10 µM, time 28.0 hrs. The format is functional, cell-based.
The target in data set [11] is Transcription factor p65 (Mus musculus) (UniProt Q04207). Description: Inhibition of NF-kappaB p65 translocation from cytosol to nucleus in LPS-induced mouse BV-2 cells at 2.5 to 10 uM pretreated for 4 hrs followed by LPS stimulation and measured after 24 hrs by immunofluorescence analysis. The class given is cell-based. As to conditions: dose 2.5-10 µM, time 28.0 hrs.

The subject of data set [12] is BV-2. Description: Antineuroinflammatory activity in LPS-induced mouse BV-2 cells assessed as decrease in TNFalpha protein level pretreated for 4 hrs followed by LPS stimulation for 24 hrs by ELISA. The class given is functional, cell-based. As to conditions: dose 2.5-10 µM, time 28.0 hrs.
Data set [13] deals with BV-2. Description: Antineuroinflammatory activity in LPS-induced mouse BV-2 cells assessed as decrease in IL-6 protein level pretreated for 4 hrs followed by LPS stimulation for 24 hrs by ELISA. The class given is functional, cell-based. As to conditions: dose 2.5-10 µM, time 28.0 hrs.
The test system of data set [14] is BV-2. Description: Antineuroinflammatory activity in LPS-induced mouse BV-2 cells assessed as decrease in IL-1beta protein level pretreated for 4 hrs followed by LPS stimulation for 24 hrs by ELISA. The format is functional, cell-based. As to conditions: dose 2.5-10 µM, time 28.0 hrs.

The term CC50 denotes the concentration that lowers cell viability or growth by half. A low value points to harm at low concentration. The term IC50 denotes the concentration at which inhibition is half-maximal. `CC(C)=CC(O)C(=O)/C(C)=C/[C@H](O)C/C(C)=C/CC[C@]1(C)CCc2cc(O)cc(C)c2O1` (some centres not stated) had a CC50 at 24 h in data set [1] greater than 50 µM. In the data set on BV-2 [2], the half-inhibitory concentration (IC50) turned out to be 6 µM.
Consider `CC(=O)/C=C/C/C(C)=C/CC[C@]1(C)CCc2cc(O)cc(C)c2O1`, for which the Activity entry in the data set on BV-2 [3], in the data set on BV-2 [6], with BV-2 [7], in the data set with BV-2 [12], in the data set on BV-2 [13] and in the data set with BV-2 [14] was “Dose-Dependent Effect” each time. Moreover, the result in the data set with BV-2 [4], in the data set with BV-2 [5] and in the data set with BV-2 [10] was Active. Besides, the outcome in the data set with BV-2 [8] was inactive. In addition, the inhibition result in data set [9] and in data set [11] was “Active” throughout. In addition, the CC50 at 24 h in data set [1] is greater than 50 µM. The IC50 in the data set on BV-2 [2] turned out to be 2 µM.
The molecule `CC(C)=CC(=O)C(=O)/C(C)=C/CC/C(C)=C/CC[C@]1(C)CCc2cc(O)cc(C)c2O1` showed a CC50 at 24 h in data set [1] greater than 50 µM. The IC50 in the data set with BV-2 [2] was greater than 30 µM.
The molecule `CC(C)=CC(=O)C/C(C)=C/CC/C(C)=C/CC[C@]1(C)CCc2cc(O)cc(C)c2O1` returned a CC50 at 24 h in [1] greater than 50 µM. Moreover, the IC50 in the data set on BV-2 [2] is greater than 30 µM.
As to `CC(C)=C[C@H](O)[C@@H](O)/C(C)=C/CC/C(C)=C/CC[C@]1(C)CCc2cc(O)c(C)c(C)c2O1`, in data set [1], the CC50 at 24 h is greater than 50 µM. For the same molecule, the IC50 in the data set with BV-2 [2] was 25 µM.
Taken in the same sequence, the figures for `CC(C)=CC(CO)/C(=C/CC/C(C)=C/CC[C@]1(C)CCc2cc(O)cc(C)c2O1)CO` (some centres not stated) were greater than 50 µM and 5 µM.
For `C=C(CC/C=C(\C)[C@H](O)[C@@H](O)C=C(C)C)C(=O)CC[C@]1(C)CCc2cc(O)cc(C)c2O1` the same measures were greater than 50 µM and 19 µM.
For `C/C(=C\CC[C@]1(C)CCc2cc(O)cc(C)c2O1)CC/C=C(\C)C(=O)/C=C/C(C)(C)OO` the same measures were greater than 50 µM and 29 µM.
Take `C/C(=C\CC[C@]1(C)CCc2cc(O)cc(C)c2O1)CC/C=C(\C)C(=O)/C=C/C(C)(C)O`: the CC50 at 24 h in data set [1] is greater than 50 µM. The IC50 with BV-2 [2] came out at 13 µM.
For the molecule `C/C(=C\CC[C@]1(C)CCc2cc(O)cc(C)c2O1)CC/C=C(\C)C(=O)C(=O)CC(C)C`, the CC50 at 24 h in [1] was greater than 50 µM. For the same molecule, the IC50 in the data set with BV-2 [2] amounted to 8 µM.
